Five molecules from patent US20100204155A1, “USE OF THE PEPTIDE SFLLR-OH AND MURAMYL DIPEPTIDE AS THERAPEUTIC AGENTS” (priority 2007, published 2010) can be followed below.

Test [1] relates to Primary Human endothelial cells (HUVEC). The experiment in a line: Endothelial cell migration assay. In kind it is cell-based. The note with it: 10 micrograms per ml, 22 hours, combination peptide 1:peptide 2 0.95 mole:1.05 mole. The method, then:
Thereafter, designated concentration of testing peptides—10 micrograms per ml—was added in duplicate wells.

Test [2] relates to hepatitis B virus (HBV) ayw strain. Nature of the test: HBV assay in HepG2-2.2.15 cells (TaqMan PCR of secreted HBV DNA). In kind it is cell-based. The note with it: 10 micrograms per ml, six days, HBV DNA by TaqMan PCR. An excerpt:
HepG2-2.2.15 is a stable cell line containing the hepatitis B virus (HBV) ayw strain genome (ATCC Cat. No. CRL-11997). Antiviral compounds blocking any late step of viral replication such as transcription, translation, pregenome encapsidation, reverse transcription, particle assembly and release can be identified and characterized using this cell line. In this assay, an active compound will reduce the production of secreted HBV from cells, measured by utilizing real time quantitative PCR (TaqMan) assay to directly and accurately measure HBV DNA copies.
HepG2-2.2.15 cells were plated in 96-well microtiter plates. After 16-24 hours the confluent monolayer of HepG2-2.2.15 cells was washed and the medium was replaced with complete medium containing test peptides—10 micrograms per ml—in duplicate. […] Six days following the initial administration of the peptides, the cell culture supernatants was collected, treated with pronase and DNAse and then used in a real-time quantitative TaqMan PCR assay. The PCR-amplified HBV DNA was detected in real-time by monitoring increases in fluorescence signals that result from the exonucleolytic degradation of a quenched fluorescence probe molecule that hybridizes to the amplified HBV DNA. […] Antiviral activity was calculated from the reduction in HBV DNA levels (% virus control). […]
A general note: In qPCR the cycle at which signal appears reflects the starting amount.

The subject of another test is HUVEC. Nature of the test: Endothelial tube formation assay. In kind it is cell-based, human. The note with it: 10 micrograms per ml, 20 hours, combination peptide 1:peptide 2 0.95 mole:1.05 mole. An excerpt: Positive control was vehicle only.
The subject of a further test is IL-2 spleen cells. Nature of the test: Th1/Th2 cytokine profiling assay: IL-2. In kind it is cell-based. The note with it: 10 micrograms per ml; Ovalbumin-restimulated spleen cells of immunized Balb/c mice, 72 hours.
A further test has as its system IL-4 spleen cells. Nature of the test: Th1/Th2 cytokine profiling assay: IL-4. The note with it: 10 micrograms per ml; Ovalbumin-restimulated spleen cells of immunized Balb/c mice, 72 hours. In kind it is cell-based.
Another test has as its system HCMV strain AD169. The experiment in a line: HCMV plaque formation assay in MRC-5 cells. The note with it: for inhibition of HCMV plaque formation as compared to the virus control: 10 micrograms per ml, HCMV AD169, 7-10 days.
Another test concerns IL-5 spleen cells. Nature of the test: Th1/Th2 cytokine profiling assay: IL-5. The note with it: 10 micrograms per ml; Ovalbumin-restimulated spleen cells of immunized Balb/c mice, 72 hours. In kind it is cell-based.
The next test concerns IFNγ spleen cells. The experiment in a line: Th1/Th2 cytokine profiling assay: IFNγ. In kind it is cell-based. Particulars: 10 micrograms per ml; Ovalbumin-restimulated spleen cells of immunized Balb/c mice, 72 hours.
The test system of another test is TNF-a spleen cells. Nature of the test: Th1/Th2 cytokine profiling assay: TNF-a. In kind it is cell-based. The note with it: 10 micrograms per ml; Ovalbumin-restimulated spleen cells of immunized Balb/c mice, 72 hours.
In a further test the test system is HIV-1IIIB. The experiment in a line: HIV-1 antiviral assay in CEM-SS cells (MTS). In kind it is cell-based. Particulars: positive controls.

Where no end group is shown, it is not given here.

Text for IFNγ spleen cells: (§1) The Balb/c mice (originated in 1923, it is a popular strain and is used in many different research disciplines. Also classified as an inbred from the production of 20 or more successive brother-sister matings, the Balb/c mouse is albino and small in size) were immunized on Days 1, 15, and 29 with Ovalbumin (Ovalbumin is the main protein found in egg white, commonly used to stimulate an immunological reaction in test animals) in PBS (5 micrograms/injection). On day 50, spleens of the mice were harvested (3 weeks after last boost with Ovalbumin). Cells were cultured (2×10^5/well in triplicate) and incubated with culture medium or test peptides—10 micrograms per ml—for 30 min. Thereafter, additional Ovalbumin was added to the cells at 10 micrograms/ml for in vitro restimulation of the cells. 72 hours later, cell supernatants were harvested and assayed using the Becton Dickinson Mouse Th1/Th2 Cytokine CBA Kit.
Text for IL-2 spleen cells: as §1
Text for IL-4 spleen cells: as §1
Text for IL-5 spleen cells: as §1
Text for TNF-a spleen cells: as §1

Regarding “Ser-Phe-Leu-Leu-Arg-OH (SFLLR-OH) [Peptide 1]”, the “inhibition of the migration of human endothelial cells” value in [1] is 29%. In test [2], the “inhibition of HBV replication as compared to the virus control infection” value worked out at 39.6%. In the test on HUVEC, the “inhibition of the tube formation of endothelial cells” value was 12%. In addition, the “IL-2 spleen cells (% of control)” value in the test on IL-2 spleen cells is reported as 55.7 % of control. Also, in the test with IL-4 spleen cells, the “IL-4 spleen cells; TH2 response (% of control)” value was 0.0 % of control. In the test with HCMV strain AD169, the “inhibition of HCMV plaque formation as compared to the virus control” value is listed as “did not inhibit”. Moreover, the “IL-5 spleen cells; TH2 response (% of control)” value in the test on IL-5 spleen cells was 55.9 % of control. The “IFNγ spleen cells; TH1 response (% of control)” value in the test on IFNγ spleen cells is 129.1 % of control. Also, the “TNF-a spleen cells; TH1 response (% of control)” value with TNF-a spleen cells is 121.8 % of control.

`Cc1cn([C@H]2C[C@H](N=[N+]=[N-])[C@@H](CO)O2)c(=O)[nH]c1=O` [AZT]: the “antiviral activity of positive control compounds (HIV-1 assay)” value in the test on HIV-1IIIB is “expected levels of antiviral activity”.

For `Nc1nc(O)c2ncn(COC(CO)CO)c2n1` [Ganciclovir, reference compound], the “antiviral activity of positive control compound (HCMV assay)” value in the test with HCMV strain AD169 (positive control, HCMV AD169) was “expected levels of antiviral activity”.

Turning to `CC(C)(C)NC(=O)[C@@H]1CN(Cc2cccnc2)CCN1C[C@@H](O)C[C@@H](Cc1ccccc1)C(=O)N[C@H]1c2ccccc2C[C@H]1O` [indinavir], the “antiviral activity of positive control compounds (HIV-1 assay)” value in the test on HIV-1IIIB is on record as “expected levels of antiviral activity”.

Consider Ac-muramyl-Ala-D-Glu-NH2 [Peptide 2], for which the “inhibition of the migration of human endothelial cells” value in [1] is listed as “did not inhibit”. For the same molecule, the “inhibition of HBV replication as compared to the virus control infection” value in test [2] is given as 54.4%. The “inhibition of the tube formation of endothelial cells” value in the test with HUVEC came to 27%. The “IL-2 spleen cells (% of control)” value in the test on IL-2 spleen cells was 0.0 % of control. For the same molecule, in the test with IL-4 spleen cells, the “IL-4 spleen cells; TH2 response (% of control)” value is 94.5 % of control. For the same molecule, in the test on HCMV strain AD169, the “inhibition of HCMV plaque formation as compared to the virus control” value is “did not inhibit”. Further, the “IL-5 spleen cells; TH2 response (% of control)” value with IL-5 spleen cells is listed as 71.3 % of control. In addition, the “IFNγ spleen cells; TH1 response (% of control)” value with IFNγ spleen cells is 146.7 % of control. Besides, the “TNF-a spleen cells; TH1 response (% of control)” value with TNF-a spleen cells is given as 134.0 % of control.
